This is an account of results in patent US11760744B2, “Fused ring compounds” (Genentech, Inc., priority 2018, dated 2023).

Assay [1] deals with T1, K-Ras G12C (Homo sapiens, UniProt P01116, G12C). The assay is described as follows: K-Ras G12C, SOS1, Raf RBD HTRF assay for inhibition of GTP exchange. Type of assay: biochemical. More on the design: K-Ras G12C (residues 2-188) and SOS1 (residues 564-1049) had N-terminal 6-His; made in house; host or cells: E. coli. To be noted: 18 hours preincubation with K-Ras G12C at room temperature; SOS1-mediated GTP exchange. As for the experimental part:
K-Ras G12C, SOS1, Raf RBD Homogeneous Time Resolved Fluorescence (HTRF) Assay for Inhibition of GTP Exchange
After 18 hours at room temperature, the SOS1 GTP exchange factor (1.67 nM during exchange, 1.25 nM final) was added to initiate nucleotide exchange to GTP (200 μM during exchange, 150 μM final). The level of GTP exchange was assessed by addition of a Ras binding domain derived from C-Raf and the HTRF detection antibodies Tb-anti-FLAG and D2-anti-his (Cis-Bio) at 50 nM, 1 nM and 12.5 nM, respectively. After 2 hours, the ratio of 665 nm to 615 nm emission with 320 nm excitation was measured on an Envision plate reader (Perkin Elmer).
The final reaction volume was 20 μl in a ProxiPlate-384F Plus (Perkin Elmer), in buffer containing 20 mM HEPES, 150 mM NaCl, 1 mM MgCl2, 0.1% BSA, 0.03% Tween-20 and 1 mM DTT. […] HTRF data are presented below in Table 2.
A general note: TR-FRET usually uses a lanthanide donor and a delayed reading to cut background.
Target sequence in this assay (P01116 2-188 isoform P01116-2 G12C): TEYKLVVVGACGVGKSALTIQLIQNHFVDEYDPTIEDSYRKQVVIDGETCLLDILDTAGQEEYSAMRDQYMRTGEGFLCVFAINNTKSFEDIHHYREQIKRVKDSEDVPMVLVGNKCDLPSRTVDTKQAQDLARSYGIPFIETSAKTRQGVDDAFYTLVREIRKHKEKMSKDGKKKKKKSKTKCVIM

In assay [2] the target is T1, K-Ras G12C. The assay is described as follows: Western blot assay for in cell alkylation of K-Ras G12C (HCC1171 cells). The format is cell-based. Further details: endogenous in cells; host or cells: HCC1171. The note with it: 18 hours at 37° C., 7 point dose response. As for the experimental part:
Western Blot Assay for in Cell Alkylation of K-Ras G12C
HCC1171 cells were maintained in RPMI1640 supplemented with 10% FBS. Cells were plated in a 96-well plate at 20,000 cells/well and the following day compounds were added to the cells. After 18 hours at 37° C., cells were lysed in RIPA buffer (Sigma R0278) with 0.5% SDS and protease/phosphatase inhibitor cocktail. After through mixing to enable complete lysis, the lysates were cleared by centrifugation before 20 μl was transferred from each well and combined with loading buffer and reducing agent. After heating for 10 minutes at 95° C., 15 μl of each sample was loaded onto a 4-20% Tris-Glycine gel and electrophoresed at 110V for 165 minutes in SDS-PAGE running buffer. Gels were transferred to a nitrocellulose membrane, blocked for 1 hour and stained overnight at 4° C. with primary antibody against K-Ras (polyclonal Proteintech 12063-1-AP). The membrane was then washed thoroughly and counterstained with anti-rabbit IRDye 800CW (LI-COR 926-32211) for one hour at room temperature. After final washes, the membrane was imaged on a LI-COR Odyssey CLx at medium resolution. Alkylated K-Ras was visible by an electrophoretic shift from unmodified K-Ras. To quantify this affect, the LICOR software was used to draw a rectangle over alkylated and unalkylated bands for each well and measured the total fluorescent intensity (FI) in each of these bands. The following formula was then used to calculate % alkylation: FI(alkylated)/(FI(alkylated)+FI(unalkylated))*100 for each well.
A 7 point dose response curve was used to determine the IC50 for each compound. Cell alkylation data are presented below in Table 2.
Target sequence in this assay (P01116 1-188 isoform P01116-2 G12C): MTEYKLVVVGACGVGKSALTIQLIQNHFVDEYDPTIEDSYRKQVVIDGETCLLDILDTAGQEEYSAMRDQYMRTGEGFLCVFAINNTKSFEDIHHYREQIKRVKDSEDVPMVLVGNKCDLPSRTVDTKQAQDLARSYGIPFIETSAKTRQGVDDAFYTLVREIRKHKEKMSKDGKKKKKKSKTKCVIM
(Immunoblotting shows a protein as a band on a membrane.)

The term IC50 denotes the concentration that gives 50% inhibition. As usually defined, the EC50 is the concentration giving half of the maximal effect. `C=CC(=O)N1CCN(c2ncnc3c2CC[C@H](c2c(F)c(N)cc(F)c2C(F)(F)F)C3)CC1` (single isomer, unassigned) [Example 13b]: the IC50 on K-Ras G12C [1] is 84 nM. Also, on K-Ras G12C [2], the EC50 stood at 690 nM.
In the same order, the values of `COc1ccc(CN(Cc2ccc(OC)cc2)c2cc(C)c(I)c([C@@H]3Cc4nc(OC[C@@H]5CCCN5C)nc(N5CCN(C(=O)OC(C)(C)C)C[C@@H]5C)c4C[C@H]3C)c2F)cc1` (single isomer, unassigned) [Example 14a] are > 50000 nM and 1000 nM.
In the same order, the values of `COc1ccc(CN(Cc2ccc(OC)cc2)c2cc(C)c(I)c([C@H]3Cc4nc(OC[C@@H]5CCCN5C)nc(N5CCN(C(=O)OC(C)(C)C)C[C@@H]5C)c4C[C@@H]3C)c2F)cc1` (single isomer, unassigned) [Example 14b] are > 50000 nM and 1000 nM.
Taken in the same sequence, the figures for `C=CC(=O)N1CCN(c2ncnc3c2C[C@@H](C)[C@H](c2c(C)ccc4[nH]ncc24)C3)CC1` (single isomer, unassigned) [Example 15a] were 68 nM and 430 nM.
Regarding `C=CC(=O)N1CCN(c2ncnc3c2C[C@H](C)[C@@H](c2c(C)ccc4[nH]ncc24)C3)CC1` (single isomer, unassigned) [Example 15b], the IC50 at K-Ras G12C [1] was determined as 8600 nM. The compound further registered a concentration giving a half-maximal response (EC50) at K-Ras G12C [2] of 30000 nM.
In the same order, the values of `CNC/C=C/C(=O)N1CCN(c2ncnc3c2C[C@@H](C)[C@H](c2c(C)ccc4[nH]ncc24)C3)CC1` (single isomer, unassigned) [Example 19a] are 930 nM and 12000 nM.
On K-Ras G12C [1], `C=CC(=O)N1CCN(c2nc(OC[C@@H]3CCCN3C)nc3c2C[C@H](C)[C@@H](c2nc(N)cc(C)c2C(F)(F)F)C3)CC1` (single isomer, unassigned) [Example 20b] registered an IC50 of 1400 nM. The compound further registered an EC50 on K-Ras G12C [2] of 2100 nM.
Taken in the same sequence, the figures for `C=CC(=O)N1CCN(c2nc(OC[C@@H]3CCCN3C)nc3c2C[C@H](C)[C@@H](c2nc(N)cc(C)c2C(F)(F)F)C3)[C@@H](C)C1` (single isomer, unassigned) [Example 21a] were 1100 nM and 2300 nM.
As for `C=CC(=O)N1CCN(c2nc(OC[C@@H]3CCCN3C)nc3c2C[C@H](C)[C@@H](c2cc(O)cc4ccccc24)C3)[C@@H](C)C1` (single isomer, unassigned) [Example 22a], the midpoint of inhibition at K-Ras G12C [1], the IC50, lay at 20 nM. At K-Ras G12C [2], this compound displayed an EC50 of 100 nM.
In the same order, the values of `C=CC(=O)N1CCN(c2nc(OC[C@@H]3CCCN3C)nc3c2C[C@H](C)[C@@H](c2c(C(F)(F)F)ccc(N)c2F)C3)[C@@H](C)C1` (single isomer, unassigned) [Example 23a] are 720 nM and 1000 nM.
On K-Ras G12C [1], `C=CC(=O)N1CCN(c2nc(OC[C@@H]3C[C@@H](F)CN3C)nc3c2C[C@@H](C)[C@H](c2nc(N)cc(C)c2C2CC2)C3)[C@@H](C)C1` (single isomer, unassigned) [Example 24b] had an IC50 of 21 nM. Also, at K-Ras G12C [2], it took 490 nM to reach a half-maximal effect (EC50).
For `C=CC(=O)N1CCN(c2ncnc3c2CC[C@H](c2c(F)c(N)cc(C)c2C(F)(F)F)C3)CC1` (single isomer, unassigned) [Example 27a], on K-Ras G12C [1], the IC50 was found to be 89 nM. The same compound came in with an EC50 at K-Ras G12C [2] of 340 nM.
In turn, `C=CC(=O)N1CCN(c2nc(OC[C@@H]3CCCN3C)nc3c2CC[C@@H](c2cc(O)cc4ccccc24)C3)[C@@H](C)C1` (single isomer, unassigned) [Example 28a] returned a half-inhibitory concentration (IC50) against K-Ras G12C [1] of 130 nM. The EC50 on K-Ras G12C [2] came to 1000 nM.
In turn, `C=CC(=O)N1CCN(c2nc(OC[C@@H]3CCCN3C)nc3c2CCC(c2cc(O)cc4ccccc24)C3)[C@@H](CO)C1` (single isomer, unassigned) [Example 29a] yielded an IC50 against K-Ras G12C [1] of 530 nM. The compound also displayed a 50% effective concentration (EC50) on K-Ras G12C [2] of 9300 nM.
As to `C=CC(=O)N1CCN(c2nc(OC[C@@H]3CCCN3C)nc3c2CCC(c2cc(O)cc4ccccc24)C3)[C@@H](CO)C1` (single isomer, unassigned) [Example 29b], the IC50 against K-Ras G12C [1] was < 10 nM. This compound returned an EC50 on K-Ras G12C [2] of 330 nM.
On K-Ras G12C [1], `C=CC(=O)N1CCN(c2nc(OC[C@@H]3C[C@H](F)CN3C)nc3c2CC[C@H](c2cc(O)cc4ccccc24)C3)[C@@H](C)C1` (single isomer, unassigned) [Example 30a] registered an IC50 of 11 nM. This compound also gave an EC50 on K-Ras G12C [2] of 40 nM.
With `C=CC(=O)N1CCN(c2nc(OC[C@@H]3C[C@@H](F)CN3C)nc3c2CC[C@@H](c2cc(O)cc4ccccc24)C3)[C@@H](C)C1` (single isomer, unassigned) [Example 31b], the midpoint of inhibition against K-Ras G12C [1], the IC50, lay at 250 nM. The half-maximal effective concentration (EC50) on K-Ras G12C [2] was 2000 nM.
In the same order, the values of `C=CC(=O)N1C[C@H](C)N(c2nc(OC[C@@H]3CCCN3C)nc3c2C[C@@H](C)[C@H](c2cc(O)cc4ccccc24)C3)[C@@H](C)C1` (single isomer, unassigned) [Example 32a] are < 10 nM and 120 nM.
In the same order, the values of `C=CC(=O)N1C[C@H](C)N(c2nc(OC[C@@H]3CCCN3C)nc3c2C[C@H](C)[C@@H](c2cc(O)cc4ccccc24)C3)[C@@H](C)C1` (single isomer, unassigned) [Example 32b] are 56 nM and 920 nM.
As for `C=CC(=O)N1CCN(c2nc(OC[C@@H]3CCCN3C)nc3c2C[C@@H](C(C)C)[C@H](c2nc(N)cc(C)c2C(F)(F)F)C3)[C@@H](C)C1` (single isomer, unassigned) [Example 33a], at K-Ras G12C [1], the IC50 was < 10 nM. The same compound returned an EC50 on K-Ras G12C [2] of 51 nM.
In the same order, the values of `C=CC(=O)N1CCN(c2nc(OC[C@@H]3CCCN3C)nc3c2C[C@H](C(C)C)[C@@H](c2nc(N)cc(C)c2C(F)(F)F)C3)[C@@H](C)C1` (single isomer, unassigned) [Example 33b] are 300 nM and 2200 nM.
`C=C(F)C(=O)N1CCN(c2nc(OC[C@@H]3CCCN3C)nc3c2CC(C)C(c2c(F)c(N)cc(C)c2C(F)(F)F)C3)CC1CC#N` (single isomer, unassigned) [Example 34a]: the IC50 against K-Ras G12C [1] amounted to 8900 nM. Moreover, the EC50 at K-Ras G12C [2] was > 3000 nM.
Taken in the same sequence, the figures for `C=C(F)C(=O)N1CCN(c2nc(OC[C@@H]3CCCN3C)nc3c2C[C@H](C)[C@@H](c2c(F)c(N)cc(C)c2C(F)(F)F)C3)C[C@H]1CC#N` (single isomer, unassigned) [Example 34b] were 680 nM and 1200 nM.
In turn, `C=CC(=O)N1CCN(c2nc(OC[C@@H]3CCCN3C)nc3c2C[C@H](C)[C@@H](c2cccc4c2CCC4)C3)C[C@H]1CC#N` (single isomer, unassigned) [Example 35a] yielded an IC50 against K-Ras G12C [1] of 190 nM. The compound also yielded an EC50 on K-Ras G12C [2] of 550 nM.
Taken in the same sequence, the figures for `C=CC(=O)N1CCN(c2nc(OC[C@@H]3CCCN3C)nc3c2C[C@H](C)[C@@H](c2cccc4c2CCC4)C3)C[C@@H]1CC#N` (single isomer, unassigned) [Example 35c] were 22 nM and 46 nM.
`C=CC(=O)N1CCN(c2nc(OC[C@@H]3C[C@@H](F)CN3C)nc3c2C[C@H](C)[C@@H](c2c(F)c(N)cc(C)c2C(F)(F)F)C3)[C@@H](C)C1` (single isomer, unassigned) [Example 36a] returned an IC50 at K-Ras G12C [1] of 360 nM. The EC50 at K-Ras G12C [2] was found to be 270 nM.
In the same order, the values of `C=CC(=O)N1CCN(c2nc(OC[C@@H]3C[C@@H](F)CN3C)nc3c2C[C@H](CC)[C@@H](c2c(F)c(N)cc(C)c2C(F)(F)F)C3)[C@@H](C)C1` (single isomer, unassigned) [Example 37b] are 2200 nM and 1000 nM.
`C=C(F)C(=O)N1CCN(c2nc(OC[C@@H]3C[C@@H](F)CN3C)nc3c2C[C@H](C)[C@@H](c2c(F)c(N)cc(C)c2C(F)(F)F)C3)C[C@H]1CC#N` (single isomer, unassigned) [Example 38a]: the IC50 against K-Ras G12C [1] worked out at 3600 nM. On K-Ras G12C [2], this compound displayed an EC50 of 1000 nM.
As for `C=C(F)C(=O)N1CCN(c2nc(OC[C@@H]3C[C@@H](F)CN3C)nc3c2C[C@H](C)[C@@H](c2c(F)c(N)cc(C)c2C(F)(F)F)C3)C[C@@H]1CC#N` (single isomer, unassigned) [Example 38d], at K-Ras G12C [1], the IC50 was 1700 nM. On K-Ras G12C [2], this compound showed an EC50 of 1000 nM.
